The source of these data is ChEMBL document CHEMBL4420065, “Synaptojanin-2 inhibitors for use in the treatment of cancer” (2017).

Calls of active or inactive are those of the source. The calls are words filed in the database; no cut-off is given here.

The subject of the experiment is MDA-MB-231. Particulars: Homo sapiens, 10 uM.
Description: Inhibition of cell invasion of human MDA-MB-231 cells at 10 uM incubated for 96 hrs by Matrigel based assay
As for `Cc1c(O)cc2c(c1O)C(=O)[C@H](O)[C@@H](c1ccc(O)c(O)c1)O2`, the inhibition entry was “Active”. For `O=C1C[C@@H](c2ccc(O)c(O)c2)Oc2cc(O[C@@H]3O[C@H](CO)[C@@H](O)[C@H](O)[C@H]3O)cc(O)c21` the value was “Active”. Turning to `COc1cc(O)cc(O)c1C(=O)c1ccc(O)c(O)c1`, the inhibition entry is “Active”. As to `C/C(=C\CO[C@@H]1O[C@H](CO)[C@@H](O)[C@H](O)[C@H]1O)C(O)CCC(C)(C)O` (stereo not given in full), the inhibition entry was “Active”.

As for `COc1cc(C2c3c(cc(OC)c(O)c3OC)CC(CO)C2COC2OCC(O)C(O)C2O)cc(OC)c1O` (stereo not given), the inhibition result was “Active”.
